Assay results reported in PubChem BioAssay (NCI).
“And” between values parts separate entries of the source, which are not always exact repeats. Equal entries are not always repeated.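 The compound was tested at five concentrations on cells cultured in 96-well plates, with a 48-hour exposure period. The concentration for 50% growth inhibition is given as GI50. TGI marks complete inhibition of growth.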

Experiments:
Experiment in all cases: inhibition of tumour cell growth, NCI panel, 48 h
A549 NSCLC = tested on: A549 NSCLC
BT-549 breast = tested on: BT-549 breast
EKVX NSCLC = tested on: EKVX NSCLC
HOP-62 NSCLC = tested on: HOP-62 NSCLC
MCF7 breast = tested on: MCF7 breast
PC-3 prostate = tested on: PC-3 prostate
SNB-75 CNS = tested on: SNB-75 CNS
T-47D breast = tested on: T-47D breast
TK-10 renal = tested on: TK-10 renal
UO-31 renal = tested on: UO-31 renal

Row | Compound | TGI (A549 NSCLC) | TGI (BT-549 breast) | TGI (EKVX NSCLC) | TGI (HOP-62 NSCLC) | TGI (MCF7 breast) | TGI (PC-3 prostate) | TGI (SNB-75 CNS) | TGI (T-47D breast) | TGI (TK-10 renal) | TGI (UO-31 renal) | GI50 (A549 NSCLC) [µM] | GI50 (BT-549 breast) | GI50 (EKVX NSCLC) | GI50 (HOP-62 NSCLC) | GI50 (MCF7 breast) [µM] | GI50 (PC-3 prostate) | GI50 (SNB-75 CNS) | GI50 (T-47D breast) [µM] | GI50 (TK-10 renal) | GI50 (UO-31 renal)
1 | CC(C)CNC(=O)O | > 100 µM | > 100 µM | > 100 µM | > 100 µM | > 100 µM | > 100 µM | > 100 µM | > 100 µM | > 100 µM | > 100 µM | – | – | – | – | – | – | – | – | – | –
2 | COc1ccc(Nc2c3ccccc3nc3occ(Cl)c23)cc1 | 3.95 µM | 26.2 µM | 6.89 µM | 19.1 µM | > 33.2 µM | 13.6 µM | > 100 µM | > 100 µM | 8.67 µM | 26.9 µM | < 0.0112 | 2.05 µM | 1.76 µM | < 0.0156 µM | < 0.01 | < 0.01 µM | 0.0908 µM | 0.0883 | 0.0228 µM | 0.346 µM
3 | C=C1C(=O)O[C@H]2[C@H]1CC/C(COC(=O)c1ccc(Cl)nc1)=C\CC[C@@]1(C)O[C@@H]21 | 26.2 µM | 6.71 µM | 13.6 µM | 26.3 µM | 3.72 µM | 23.1 µM | 31.6 µM | 5.3 µM | 6.77 µM | 2.96 µM | 11.3 | 1.95 µM | 3.41 µM | 11 µM | 1.08 | 10.2 µM | 12.4 µM | 1.79 | 2.86 µM | 1.37 µM
4 | Nc1nc(SN=Nc2ccc(S(N)(=O)=O)cc2)c2[nH]cnc2n1 | > 100 µM | > 100 µM | > 100 µM | > 100 µM | > 100 µM | > 100 µM | > 21.7 µM | > 100 µM | 23.6 µM | > 100 µM | 3.06 | 1.15 µM | 0.714 µM | 0.62 µM | 0.289 | 1.64 µM | 0.354 µM | 0.536 | 0.448 µM | 0.455 µM
5 | CC(C)OC(=O)NNc1cc(Cl)ccc1Cl | > 100 µM | > 100 µM | > 100 µM | > 100 µM | > 100 µM | > 100 µM | > 100 µM | > 100 µM | > 100 µM | > 100 µM | – | – | – | – | – | – | – | – | – | –
6 | COc1cc2c(c(OC)n1)[C@]1(O)[C@H](O)[C@H](CN(C)C)[C@@H](c3ccccc3)[C@]1(c1ccc(C#N)cc1)O2 | 8.42 µM and 8.64 µM | 0.825 µM and 2.62 µM | 2.81 µM and 2.54 µM | 3.52 µM and 0.565 µM | 0.721 µM and 3.09 µM | 10.7 µM and 2.39 µM | 4.58 µM and 2.02 µM | 3.81 µM and 2.33 µM | 2.9 µM and 6.22 µM | 0.479 µM and 0.319 µM | < 0.01 | 0.0451 µM and 0.0737 µM | 0.0305 µM and 0.0237 µM | < 0.0151 µM and 0.0102 µM | < 0.01 | 0.0223 µM and < 0.0116 µM | 0.1 µM and 0.047 µM | < 0.01 | 0.0543 µM and 0.0672 µM | 0.0224 µM and 0.0197 µM
7 | COc1ccc2[nH]c3c4c(ccc3c2c1)C(=O)C=CC4=O | 62.8 µM | 84.9 µM | 29.9 µM | > 94.4 µM | 30.1 µM | 33.8 µM | 41.3 µM | 9.75 µM | 28.1 µM | 28.2 µM | – | – | – | – | – | – | – | – | – | –
8 | COc1cc(C2=C(c3cn(C)c4ccccc34)COC2=O)cc(OC)c1OC | > 25.6 µM | 4.18 µM | 5.42 µM | > 34.8 µM | > 19.8 µM | 53.8 µM | 0.522 µM | 8.65 µM | 5.61 µM | 6.37 µM | 0.1 | 0.0615 µM | 0.121 µM | 0.123 µM | 0.0274 | 0.125 µM | 0.0438 µM | 0.0604 | 0.569 µM | 0.226 µM
9 | O=c1[nH]cnc2cccc(Cl)c12 | > 100 µM | > 100 µM | > 100 µM | > 100 µM | > 100 µM | > 100 µM | > 100 µM | > 100 µM | > 100 µM | > 100 µM | – | – | – | – | – | – | – | – | – | –
10 | CCOC(=O)CNC(=O)c1ccccc1Nc1ccnc(C(F)(F)F)c1 | > 100 µM | > 100 µM | > 96 µM | > 69.6 µM | > 89.1 µM | > 95.5 µM | > 100 µM | > 100 µM | > 100 µM | > 59.5 µM | > 53.5 | 42 µM | 30.6 µM | 39.6 µM | 38.8 | 25.4 µM | > 100 µM | 41.9 | 41.6 µM | 24.4 µM
11 | NC(CS/C(Cl)=C/Cl)C(=O)O (stereo not given) | 6.98 µM | > 64.1 µM | > 100 µM | 29.3 µM | > 100 µM | > 100 µM | > 100 µM | 15.2 µM | > 100 µM | > 100 µM | 1.69 | 12.1 µM | 31.7 µM | 4.64 µM | 4.03 | 34.3 µM | > 75.9 µM | 2.68 | > 100 µM | 54.8 µM
12 | COc1cccc(/C(COc2ccc3c(c2)oc(=O)c2cc(OC)ccc23)=N/O)c1 | > 100 µM | > 100 µM | > 100 µM | > 100 µM | > 100 µM | > 100 µM | 9.61 µM | > 100 µM | > 100 µM | 75.6 µM | 7.57 | 11.7 µM | 16.1 µM | 6.9 µM | 4.02 | 6.29 µM | 2.36 µM | 4.85 | 16.5 µM | 7.11 µM
13 | COc1ccc2c(c1)C(C)Cc1c(ncnc1-n1c(C)nc3ccccc31)N2C (stereo not given) | 24.7 µM | 30.6 µM | 21.8 µM | 24.6 µM | 19.9 µM | 27.3 µM | 11.1 µM | 49.9 µM | 45.9 µM | 20.7 µM | 4.82 | 5.82 µM | 3.94 µM | 4.23 µM | 1.88 | 3.25 µM | 2.41 µM | 6.5 | 7.28 µM | 4.59 µM
14 | N#C/C(=C/N1CCN(C(=O)c2ccco2)C1=S)C(=O)c1ccccc1 | 58.4 µM | 32.3 µM | 48 µM | 47 µM | > 100 µM | > 100 µM | > 100 µM | > 100 µM | 28.8 µM | 32.5 µM | 22 | 7.77 µM | 17.8 µM | 22 µM | 4.47 | 31.7 µM | 68.2 µM | 7.16 | 10.5 µM | 10.2 µM
15 | O=C(Nc1ccc(Br)cc1)c1ccc(Cl)c(Cl)c1 | > 100 µM | > 29.8 µM | > 100 µM | > 52.3 µM | > 31.4 µM | > 30.8 µM | > 31 µM | > 27.9 µM | > 100 µM | > 100 µM | 3.76 | 2.74 µM | 1.99 µM | 3.86 µM | 2.19 | 2.47 µM | 3.2 µM | 2 | 4.78 µM | 2.31 µM
16 | COc1ccc2ncn(-c3cc(O[C@H](C)c4ccccc4Cl)c(C(N)=O)s3)c2c1 | > 25 µM | 13.3 µM | > 25 µM | > 25 µM | 4.17 µM | > 25 µM | > 19.7 µM | 8.3 µM | 11.1 µM | 17 µM | 0.0287 | 0.448 µM | 0.183 µM | 0.0192 µM | 0.00895 | 0.0733 µM | 0.148 µM | 1.07 | 1.19 µM | 1.41 µM
